Data reported in US20070172843A1, “MEK interacting protein 1 as diagnostic and therapeutic target for breast cancer treatment and prevention” (priority 2005, published 2007).

Tests used:
Flag-ER = test: Inducible 3' Flag-ER expression (ARGENT system) in stably transfected MCF-7 derivative, Western blotting; type: cell-based, human; conditions: treated six hours, Western blot, FIG. 2
Source text: To tightly regulate expression of the Flag-ER gene, the Ariad “ARGENT” inducible gene expression system (25) (www.ariad.com) was used. This system allows for tight and specific regulation of a target gene.
To identify physiologically relevant ER-interacting proteins, the MCF-7 cell line was used. […] First, a stable derivative of MCF-7 in which target genes can be inducibly expressed was constructed. The construction of this cell line and an example of its use have been previously described (27). Next, the 5′ and 3′ Flag-ER constructs were subcloned into the target vector, and these constructs were stably transfected into the MCF-7 derivative described above. […] Stable transfectants containing either 3′ Flag-ER or empty vector were treated as indicated (in FIG. 2) for six hours, and lysates were analyzed by Western blotting (WB) with antibodies to ER, Flag, or Actin.

ER = target: T1, ER (Homo sapiens, UniProt P03372); conditions: MCF-7 cells, 24 h in medium lacking E2, ligand for 3 h; MP1 vs empty vector; FIG. 5
T1 sequence (P03372 1-595): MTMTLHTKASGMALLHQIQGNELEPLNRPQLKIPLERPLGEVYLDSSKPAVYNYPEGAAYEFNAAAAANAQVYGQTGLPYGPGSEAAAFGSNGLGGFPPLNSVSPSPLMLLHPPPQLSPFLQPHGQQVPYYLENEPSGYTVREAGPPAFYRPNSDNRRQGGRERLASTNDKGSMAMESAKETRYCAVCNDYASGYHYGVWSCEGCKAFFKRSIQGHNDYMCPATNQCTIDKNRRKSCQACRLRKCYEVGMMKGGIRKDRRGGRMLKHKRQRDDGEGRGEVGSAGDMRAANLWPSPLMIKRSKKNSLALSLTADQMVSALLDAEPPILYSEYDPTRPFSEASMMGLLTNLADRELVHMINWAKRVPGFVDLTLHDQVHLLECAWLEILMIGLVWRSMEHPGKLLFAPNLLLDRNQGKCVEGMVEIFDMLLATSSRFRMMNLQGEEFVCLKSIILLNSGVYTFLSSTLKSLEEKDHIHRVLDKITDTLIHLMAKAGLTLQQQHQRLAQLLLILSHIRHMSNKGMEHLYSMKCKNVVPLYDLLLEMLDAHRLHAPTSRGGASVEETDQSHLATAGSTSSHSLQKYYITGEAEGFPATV

ER/MP1 complex = target: T2, ER/MP1 complex (Homo sapiens, UniProt P03372); conditions: MCF-7 cells pre-treated in absence of E2, then ligand for 2 h; IP with ER or MP1 antibody; FIG. 4
T2 sequence (P03372 1-595): T1 sequence (P03372 1-595)
Method: One limitation to inducible expression systems is that proteins are expressed at very high levels, and complexes may form that are not physiologically relevant. […] Cell lysates were prepared and precipitated with either 0-ER (Labvision/NeoMarker) or 0-MP1 (Santa Cruz) antibody and protein G agarose beads.

MCF-7 cells = test: BrdU incorporation proliferation assay in MCF-7 cells transfected with MP1 expression vector or empty vector; type: cell-based, human; conditions: ligand for 48 h, BrdU for the final 5 h, FIG. 6
Method: The ER has both genomic and non-genomic activities, and its activity in transcription assays may not fully represent its ability to regulate cell proliferation. […] To label proliferating cells, BrdU (which is incorporated into DNA during DNA synthesis) was added to the cultures for the final 5 h of incubation. Cells were then fixed, labeled with a fluorescent anti-BrdU antibody, and the percentage of cells that incorporated BrdU (ie, were proliferating) was determined.

CO[C@H]1[C@@H](O)[C@H](C)C[C@H](C)/C=C/C=C/C=C(\C)[C@@H](c2c[nH]c3c(C)cccc23)C[C@@H]2CC[C@@H](C)[C@@](O)(O2)C(=O)C(=O)N2CCCC[C@H]2C(=O)O[C@H]([C@H](C)C[C@@H]2CC[C@@H](O)[C@H](OC)C2)C[C@H](O)[C@H](C)/C=C(\C)[C@H]1O [AP21967]
Flag-ER expression from the transfected gene (Flag-ER; cells containing 3' Flag-ER): highly induced | endogenous ER expression (Flag-ER; vector containing cells): did not alter this expression

C[C@]12CC[C@@H]3c4ccc(O)cc4C[C@@H](CCCCCCCCC[S+]([O-])CCCC(F)(F)C(F)(F)F)[C@H]3[C@@H]1CC[C@@H]2O (some centres unmarked) [ICI, ICI 182,780]
effect of MP1 co-transfection on ER activity (ERE-Luc) in the presence of ligand (ER): not | co-precipitation of MP1 with ER (ER/MP1 complex formation) (ER/MP1 complex): not

CC/C(=C(\c1ccccc1)c1ccc(OCCN(C)C)cc1)c1ccccc1 [Tam, tamoxifen]
effect of MP1 overexpression on proliferation (percentage of cells that incorporated BrdU) in the presence of ligand (MCF-7 cells): dramatically increases proliferation
